Results taken from PubChem BioAssay (NCI).
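GI50 = concentration required for 50% inhibition of growth. TGI denotes the concentration required for complete inhibition of growth.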

Experiments:
Test in all cases: NCI anticancer screen, dose series, 384-well format
SK-MEL-5 melanoma = test system: SK-MEL-5 melanoma
SF-539 CNS = test system: SF-539 CNS
PC-3 prostate = test system: PC-3 prostate
OVCAR-5 ovarian = test system: OVCAR-5 ovarian
LOX IMVI melanoma = test system: LOX IMVI melanoma
MCF7 breast = test system: MCF7 breast
OVCAR-3 ovarian = test system: OVCAR-3 ovarian
SK-OV-3 ovarian = test system: SK-OV-3 ovarian
A498 renal = test system: A498 renal
SNB-19 CNS = test system: SNB-19 CNS
NCI-H522 lung = test system: NCI-H522 lung
RXF 393 renal = test system: RXF 393 renal
SN12C renal = test system: SN12C renal
NCI-H460 NSCLC = test system: NCI-H460 NSCLC
KM12 colon = test system: KM12 colon
SF-295 CNS = test system: SF-295 CNS
CCRF-CEM leukemia = test system: CCRF-CEM leukemia
NCI-H322M lung = test system: NCI-H322M lung
MDA-MB-468 breast = test system: MDA-MB-468 breast
K-562 leukemia = test system: K-562 leukemia
CAKI-1 renal = test system: CAKI-1 renal
SK-MEL-28 melanoma = test system: SK-MEL-28 melanoma
SW-620 colon = test system: SW-620 colon
TK-10 renal = test system: TK-10 renal
M14 melanoma = test system: M14 melanoma
MDA-MB-231 breast = test system: MDA-MB-231 breast
MOLT-4 leukemia = test system: MOLT-4 leukemia
A549 NSCLC = test system: A549 NSCLC
HT29 colon = test system: HT29 colon
UACC-257 melanoma = test system: UACC-257 melanoma
HCC-2998 colon = test system: HCC-2998 colon
SNB-75 CNS = test system: SNB-75 CNS
OVCAR-8 ovarian = test system: OVCAR-8 ovarian
ACHN renal = test system: ACHN renal
BT-549 breast = test system: BT-549 breast
SF-268 CNS = test system: SF-268 CNS
HOP-62 NSCLC = test system: HOP-62 NSCLC
IGROV1 ovarian = test system: IGROV1 ovarian
EKVX NSCLC = test system: EKVX NSCLC
OVCAR-4 ovarian = test system: OVCAR-4 ovarian
T-47D breast = test system: T-47D breast
HCT-15 colon = test system: HCT-15 colon
MDA-MB-435 melanoma = test system: MDA-MB-435 melanoma
HOP-92 NSCLC = test system: HOP-92 NSCLC
UO-31 renal = test system: UO-31 renal
HCT-116 colon = test system: HCT-116 colon
SK-MEL-2 melanoma = test system: SK-MEL-2 melanoma
DU-145 prostate = test system: DU-145 prostate
RPMI-8226 leukemia = test system: RPMI-8226 leukemia
NCI/ADR-RES ovarian = test system: NCI/ADR-RES ovarian
UACC-62 melanoma = test system: UACC-62 melanoma
NCI-H226 lung = test system: NCI-H226 lung
HS 578T breast = test system: HS 578T breast
COLO 205 colon = test system: COLO 205 colon
U251 glioblastoma = test system: U251 glioblastoma
HL-60(TB) leukemia = test system: HL-60(TB) leukemia
MALME-3M melanoma = test system: MALME-3M melanoma
NCI-H23 lung = test system: NCI-H23 lung
786-0 renal = test system: 786-0 renal

Q: With `CC[C@H](CC#N)OC(=O)N[C@@H](C)c1cccc(NC(=O)Nc2ccc(-c3cnco3)c(OC)c2)c1` as the compound, how does the GI50 (SK-MEL-5 melanoma) read?
A: 78.7 nM

Q: And the TGI (SK-MEL-5 melanoma)?
A: 348 nM

Q: And the GI50 (SF-539 CNS)?
A: 108 nM

Q: And the TGI (SF-539 CNS)?
A: 8860 nM

Q: What about the GI50 (PC-3 prostate) of the same compound?
A: 178 nM

Q: What about the TGI (PC-3 prostate) of the same compound?
A: 10900 nM

Q: What about the GI50 (OVCAR-5 ovarian) of the same compound?
A: 270 nM

Q: And the TGI (OVCAR-5 ovarian)?
A: > 100000 nM

Q: What about the GI50 (LOX IMVI melanoma) of the same compound?
A: 68.9 nM

Q: And the TGI (LOX IMVI melanoma)?
A: 1400 nM

Q: And the GI50 (MCF7 breast)?
A: 159 nM

Q: What about the TGI (MCF7 breast) of the same compound?
A: 11300 nM

Q: And the GI50 (OVCAR-3 ovarian)?
A: 57.5 nM

Q: And the TGI (OVCAR-3 ovarian)?
A: 10600 nM

Q: And the GI50 (SK-OV-3 ovarian)?
A: 57.4 nM

Q: What about the TGI (SK-OV-3 ovarian) of the same compound?
A: 898 nM

Q: And the GI50 (A498 renal)?
A: 56.9 nM

Q: And the TGI (A498 renal)?
A: 1720 nM

Q: What about the GI50 (SNB-19 CNS) of the same compound?
A: 166 nM

Q: And the TGI (SNB-19 CNS)?
A: > 100000 nM

Q: What about the GI50 (NCI-H522 lung) of the same compound?
A: 428 nM

Q: What about the TGI (NCI-H522 lung) of the same compound?
A: 11900 nM

Q: And the GI50 (RXF 393 renal)?
A: 168 nM

Q: And the TGI (RXF 393 renal)?
A: 660 nM

Q: And the GI50 (SN12C renal)?
A: 314 nM

Q: What about the TGI (SN12C renal) of the same compound?
A: 16600 nM

Q: What about the GI50 (NCI-H460 NSCLC) of the same compound?
A: 74 nM

Q: What about the TGI (NCI-H460 NSCLC) of the same compound?
A: 263 nM

Q: And the GI50 (KM12 colon)?
A: 168 nM

Q: And the TGI (KM12 colon)?
A: 12400 nM

Q: What about the GI50 (SF-295 CNS) of the same compound?
A: 316 nM

Q: What about the TGI (SF-295 CNS) of the same compound?
A: 12000 nM

Q: What about the GI50 (CCRF-CEM leukemia) of the same compound?
A: 64.9 nM

Q: And the TGI (CCRF-CEM leukemia)?
A: 248 nM

Q: And the GI50 (NCI-H322M lung)?
A: 275 nM

Q: And the TGI (NCI-H322M lung)?
A: 14700 nM

Q: What about the GI50 (MDA-MB-468 breast) of the same compound?
A: 140 nM

Q: And the TGI (MDA-MB-468 breast)?
A: 825 nM

Q: What about the GI50 (K-562 leukemia) of the same compound?
A: 48.4 nM

Q: And the TGI (K-562 leukemia)?
A: 11200 nM

Q: What about the GI50 (CAKI-1 renal) of the same compound?
A: 243 nM

Q: What about the TGI (CAKI-1 renal) of the same compound?
A: 11900 nM

Q: And the GI50 (SK-MEL-28 melanoma)?
A: 126 nM

Q: And the TGI (SK-MEL-28 melanoma)?
A: 11000 nM

Q: And the GI50 (SW-620 colon)?
A: 77.7 nM

Q: What about the TGI (SW-620 colon) of the same compound?
A: 12000 nM

Q: And the GI50 (TK-10 renal)?
A: 416 nM

Q: And the TGI (TK-10 renal)?
A: 18500 nM

Q: What about the GI50 (M14 melanoma) of the same compound?
A: 159 nM

Q: What about the TGI (M14 melanoma) of the same compound?
A: 1140 nM

Q: What about the GI50 (MDA-MB-231 breast) of the same compound?
A: 300 nM

Q: What about the TGI (MDA-MB-231 breast) of the same compound?
A: 20600 nM

Q: What about the GI50 (MOLT-4 leukemia) of the same compound?
A: 20 nM

Q: And the TGI (MOLT-4 leukemia)?
A: 36.7 nM

Q: And the GI50 (A549 NSCLC)?
A: 65.7 nM

Q: What about the TGI (A549 NSCLC) of the same compound?
A: 1680 nM

Q: And the GI50 (HT29 colon)?
A: 137 nM

Q: What about the TGI (HT29 colon) of the same compound?
A: > 100000 nM

Q: What about the GI50 (UACC-257 melanoma) of the same compound?
A: 288 nM

Q: And the TGI (UACC-257 melanoma)?
A: 11500 nM

Q: What about the GI50 (HCC-2998 colon) of the same compound?
A: 212 nM

Q: And the TGI (HCC-2998 colon)?
A: 1450 nM

Q: What about the GI50 (SNB-75 CNS) of the same compound?
A: 685 nM

Q: And the TGI (SNB-75 CNS)?
A: 14300 nM

Q: What about the GI50 (OVCAR-8 ovarian) of the same compound?
A: 354 nM

Q: What about the TGI (OVCAR-8 ovarian) of the same compound?
A: 13900 nM

Q: And the GI50 (ACHN renal)?
A: 210 nM

Q: What about the TGI (ACHN renal) of the same compound?
A: 12700 nM

Q: What about the GI50 (BT-549 breast) of the same compound?
A: 115 nM

Q: What about the TGI (BT-549 breast) of the same compound?
A: 951 nM

Q: And the GI50 (SF-268 CNS)?
A: 244 nM

Q: What about the TGI (SF-268 CNS) of the same compound?
A: 11000 nM

Q: And the GI50 (HOP-62 NSCLC)?
A: 258 nM

Q: And the TGI (HOP-62 NSCLC)?
A: 10700 nM

Q: What about the GI50 (IGROV1 ovarian) of the same compound?
A: 60.7 nM

Q: What about the TGI (IGROV1 ovarian) of the same compound?
A: 10600 nM

Q: And the GI50 (EKVX NSCLC)?
A: 349 nM

Q: And the TGI (EKVX NSCLC)?
A: 12300 nM

Q: What about the GI50 (OVCAR-4 ovarian) of the same compound?
A: 373 nM

Q: And the TGI (OVCAR-4 ovarian)?
A: 15800 nM

Q: What about the GI50 (T-47D breast) of the same compound?
A: 486 nM

Q: And the TGI (T-47D breast)?
A: 10600 nM

Q: And the GI50 (HCT-15 colon)?
A: 286 nM

Q: What about the TGI (HCT-15 colon) of the same compound?
A: 11800 nM

Q: What about the GI50 (MDA-MB-435 melanoma) of the same compound?
A: 353 nM

Q: What about the TGI (MDA-MB-435 melanoma) of the same compound?
A: 14600 nM

Q: What about the GI50 (HOP-92 NSCLC) of the same compound?
A: 637 nM

Q: And the TGI (HOP-92 NSCLC)?
A: 22700 nM

Q: And the GI50 (UO-31 renal)?
A: 354 nM

Q: And the TGI (UO-31 renal)?
A: 8350 nM

Q: And the GI50 (HCT-116 colon)?
A: 75 nM

Q: And the TGI (HCT-116 colon)?
A: 10600 nM

Q: And the GI50 (SK-MEL-2 melanoma)?
A: 506 nM

Q: What about the TGI (SK-MEL-2 melanoma) of the same compound?
A: 4370 nM

Q: What about the GI50 (DU-145 prostate) of the same compound?
A: 168 nM

Q: What about the TGI (DU-145 prostate) of the same compound?
A: 11000 nM

Q: And the GI50 (RPMI-8226 leukemia)?
A: 216 nM

Q: What about the TGI (RPMI-8226 leukemia) of the same compound?
A: 957 nM

Q: And the GI50 (NCI/ADR-RES ovarian)?
A: 5600 nM

Q: And the TGI (NCI/ADR-RES ovarian)?
A: 18000 nM

Q: And the GI50 (UACC-62 melanoma)?
A: 236 nM

Q: And the TGI (UACC-62 melanoma)?
A: 10600 nM

Q: And the GI50 (NCI-H226 lung)?
A: 297 nM

Q: What about the TGI (NCI-H226 lung) of the same compound?
A: 10500 nM

Q: And the GI50 (HS 578T breast)?
A: 171 nM

Q: What about the TGI (HS 578T breast) of the same compound?
A: 1540 nM

Q: And the GI50 (COLO 205 colon)?
A: 46.3 nM

Q: What about the TGI (COLO 205 colon) of the same compound?
A: 13100 nM

Q: And the GI50 (U251 glioblastoma)?
A: 45.5 nM

Q: What about the TGI (U251 glioblastoma) of the same compound?
A: 11400 nM

Q: And the GI50 (HL-60(TB) leukemia)?
A: 53.9 nM

Q: What about the TGI (HL-60(TB) leukemia) of the same compound?
A: 220 nM

Q: And the GI50 (MALME-3M melanoma)?
A: 168 nM

Q: What about the TGI (MALME-3M melanoma) of the same compound?
A: 13100 nM

Q: What about the GI50 (NCI-H23 lung) of the same compound?
A: 154 nM

Q: And the TGI (NCI-H23 lung)?
A: 664 nM

Q: And the GI50 ([…]-0 renal)?
A: 154 nM

Q: And the TGI (786-0 renal)?
A: 1870 nM
